Laboratory results: PubChem BioAssay (NCI)
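48-hour exposure; five concentrations; linearly interpolated endpoints. Abbreviation: GI50, concentration required for 50% inhibition of growth. TGI is the concentration that stops growth completely.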

Experiments:
Assay in all cases: inhibition of tumour cell growth, NCI panel, 48 h
HOP-18 NSCLC = test system: HOP-18 NSCLC
KM20L2 colon = test system: KM20L2 colon
SNB-78 CNS = test system: SNB-78 CNS
M19-MEL melanoma = test system: M19-MEL melanoma
DLD-1 colon = test system: DLD-1 colon
NCI-H522 lung = test system: NCI-H522 lung
MCF7 breast = test system: MCF7 breast
DMS 114 small cell lung = test system: DMS 114 small cell lung
PC-3 prostate = test system: PC-3 prostate
T-47D breast = test system: T-47D breast
ACHN renal = test system: ACHN renal
MDA-MB-231 breast = test system: MDA-MB-231 breast
BT-549 breast = test system: BT-549 breast

Nc1ncnc2c1ncn2C1CCC(CO)O1 (stereo not drawn)
TGI (HOP-18 NSCLC): > 100 µM | TGI (KM20L2 colon): > 100 µM | TGI (SNB-78 CNS): > 100 µM | TGI (M19-MEL melanoma): > 100 µM | TGI (DLD-1 colon): > 100 µM | TGI (NCI-H522 lung): > 100 µM | TGI (MCF7 breast): > 100 µM | TGI (DMS 114 small cell lung): > 74.1 µM

CCN(CC)CCCC(Nc1c2ccc(Cl)cc2nc2ccc(OC)cc12)c1ccc(F)cc1 (stereo not drawn)
GI50 (PC-3 prostate): 2.7 µM | TGI (PC-3 prostate): 9.22 µM | GI50 (T-47D breast): 2.15 µM | TGI (T-47D breast): 5.66 µM | GI50 (ACHN renal): 1.97 µM | TGI (ACHN renal): 3.64 µM | GI50 (NCI-H522 lung): 2.01 µM | TGI (NCI-H522 lung): 4.58 µM | GI50 (MCF7 breast): 1.64 µM | TGI (MCF7 breast): 3.62 µM | GI50 (MDA-MB-231 breast): 1.47 µM | TGI (MDA-MB-231 breast): 3.08 µM | GI50 (BT-549 breast): 12.8 µM | TGI (BT-549 breast): 26.4 µM

Cc1cccc2c(N)c3cccc(C(=O)NCCN(C)C)c3nc12
TGI (PC-3 prostate): 0.357 µM | TGI (T-47D breast): 0.513 µM | TGI (ACHN renal): 6.75 µM | TGI (NCI-H522 lung): 0.0737 µM | TGI (MDA-MB-231 breast): 0.275 µM | TGI (BT-549 breast): 4.16 µM

COc1c2c(cc3c(CCc4ccccc4)cc(=O)oc13)CCC(C)(C)O2
TGI (KM20L2 colon): > 100 µM | TGI (M19-MEL melanoma): > 100 µM | TGI (DLD-1 colon): > 100 µM | TGI (ACHN renal): > 100 µM | TGI (DMS 114 small cell lung): > 100 µM

CC1=C[C@]2(CC(C)C3C(CC4(C)C5CCC6C(C)(C)C(=O)CC[C@@]67C[C@@]57CC[C@]34C)O2)OC1=O (stereo partly drawn)
TGI (HOP-18 NSCLC): > 100 µM | TGI (SNB-78 CNS): 71.9 µM | TGI (DLD-1 colon): > 100 µM | TGI (ACHN renal): > 100 µM | TGI (DMS 114 small cell lung): 77.1 µM

CCOP(=O)(OCC)C(Cc1ccc(OC)c(OC)c1)N=C(c1ccccc1)c1ccccc1 (stereo not drawn)
TGI (PC-3 prostate): > 100 µM | TGI (T-47D breast): 56.8 µM | TGI (ACHN renal): > 100 µM | TGI (NCI-H522 lung): 97.3 µM | TGI (MCF7 breast): 55.5 µM | TGI (MDA-MB-231 breast): > 100 µM | TGI (BT-549 breast): > 100 µM

CC(C)=CC(=O)OC1C2C(C)C(=O)OC2C(O)C(C)C2C=CC(=O)C21C (stereo not drawn)
TGI (HOP-18 NSCLC): 11.2 µM | TGI (KM20L2 colon): 7.76 µM | TGI (SNB-78 CNS): 9.88 µM | TGI (M19-MEL melanoma): 8.42 µM | TGI (DLD-1 colon): 3.9 µM | TGI (NCI-H522 lung): 1.57 µM | TGI (MCF7 breast): 11.1 µM | TGI (DMS 114 small cell lung): 7.19 µM

CO/N=C1/c2sccc2[C@H](NC(=O)C(F)(F)F)[C@@H]1O
TGI (PC-3 prostate): > 100 µM | TGI (T-47D breast): > 100 µM | TGI (MCF7 breast): > 100 µM | TGI (MDA-MB-231 breast): > 100 µM | TGI (BT-549 breast): > 100 µM
